Source: patent US20110268757A1, “USE OF PHENOL-SOLUBLE MODULINS FOR VACCINE DEVELOPMENT” (INSTITUT PASTEUR, priority 2008, published 2011)

Key:
mouse splenocytes = assay: Binding of CFSE labeled peptides to glutaraldehyde-fixed splenocytes (flow cytometry); type: cell-based; conditions: unlabeled competitor 100 μM, 20 μM CFSE γMod-SIINFEKL
Method: Binding assays were carried out using either splenocytes (FIG. 1, panels A B, D, E and G) or bone marrow derived dendritic cells (FIG. 1, panels C and F). The cells were fixed by means of an incubation with a 0.4% glutaraldehyde solution for 15 minutes at 4° C. 5×10^5 fixed cells were incubated in the presence of 20 μM CFSE αMod-[sequence] (FIG. 1, panels A, B and C), or CFSE γMod-[sequence] (FIG. 1, panels D, E, F and G). In some assays, and to study the specificity of CFSE labeled peptide binding, these incubations were carried out in the presence or absence of the unlabeled peptides αMod-[sequence], γMod-[sequence] or [sequence] (100 μM) (panels B and E). Also, we carried out binding assays using the CFSE labeled peptide CFSE-OVA (235-264) as a negative control (FIG. 1, panels A, C, D and F). After 30 minutes of incubation at 4° C., two washings with PBS were carried out and the performed labeling was analyzed by flow cytometry. In some experiments (FIG. 1G), double staining was carried out using anti-CD4, CD8, CD11c, CD19, F480 or GR1(CD117) antibodies labeled with phycoerythrin (Pharmingen) together with the CFSE-γMod-[sequence] peptide. In these cases, the labeling with the specific antibodies was carried out before fixing the cells with glutaraldehyde.

[1] = tested on: IFNγ-producing cells in response to the SIINFEKL peptide; assay: ELISPOT of IFNγ-producing cells specific for SIINFEKL after immunization; type: in vivo, C57BL/6 mice; conditions: 5 nmoles peptide plus 50 μg poly I:C
Method: (§1) C57BL6 mice were intravenously immunized intravenously with 5 nmoles of the indicated peptides in combination with 50 μg of the TLR3 ligand poly I:C. In some cases, the peptides were immunized in the presence of TLR2 (peptidoglycan), TLR4 (LPS or the EDA protein) or TLR9 (CpG) ligand. Seven days after the immunization, the mice were intravenously injected with a mixture of 5×10^6 splenocytes, half of which had been previously labeled with a dose of 0.25 μM C and the other half with 2.5 uM CFSE and the SIINFEKL peptide (10 μg/ml). On the following day, the mice were sacrificed and the splenocytes were analyzed by flow cytometry to quantify the number of cells with high CFSE labeling with respect to the cells with low CFSE labeling. Thus, the percentage of cell lysis of the cells incubated with the cytotoxic SIINFEKL peptide can be calculated in an experiment called in vivo killing.
(§2) For the analysis of IFNγ-producing cells specific for SIINFEKL and induced in vivo by the immunizations, ELISPOT experiments were carried out using a BD-pharmingen kit (San Diego, Calif.) and according to the instructions of the manufacturer. Briefly, the plates (Multiscreen HTS, Millipore, Bedford, Mass.) incubated overnight with the anti-IFNγ antibody were blocked for 2 hours with HL-1 medium (Biowhittaker, Verviers, Belgium) containing 10% horse serum. Thus, 5×10^5 splenocytes were incubated in triplicate in the absence or in the presence of the antigens at 37° C. and 5% CO2. On the following day, the plates were washed with PBS and incubated with biotinylated anti-IFNγ antibody (2 mg/ml). After two hours, the plates were washed and incubated with a 1/100 dilution of streptavidin-peroxidase. One hour later, the wells were washed and developed using the AEC substrate set (BD-Pharmingen). The colorimetric reaction was stopped with distilled water and the number of spots was quantified using an ELISPOT automatic reader (CTL, Aalen, Germany).
For the analysis of IFNγ-producing cells in the presence of SIINFEKL and induced in vivo by the immunizations, ELISPOT experiments were carried out using a BD-pharmingen kit (San Diego, Calif.) and according to the instructions of the manufacturer, in the same manner as in Example 3.

[2] = tested on: T cells from OT-1 transgenic mice; assay: Antigen presentation assay: proliferation of OT-1 T cells (tritiated thymidine); type: cell-based, mouse; conditions: dendritic cells incubated with 10 μM peptide
Method: Dendritic cells derived from bone marrow were cultured in the presence or absence of 10 μM of the indicated peptides (FIG. 3). Forty hours later, the cells were washed and distributed in 96-well plates at different concentrations and incubated in the presence of 10^5 T cells/well obtained from OT-1 transgenic mice (which express a specific T receptor for the SIINFEKL peptide of ovalbumin. Seventy-two hours later, tritiated thymidine was added to the cultures and six hours later the cells were harvested and the incorporated thymidine was analyzed in a scintillation counter (Topcount Packard).

EG7OVA tumor cells [3] = assay: Treatment of mice bearing established EG7OVA tumors; type: in vivo, C57BL/6 mice; conditions: EG7OVA tumors of 5 mm diameter at treatment, peptide plus poly I:C, p<0.05
Method: (§3) Protection against the challenge with EG7 tumor cells expressing the OVA protein C57BL6 mice were subcutaneously immunized with 5 nmol of the indicated peptides in combination with poly I:C. Seven days after the immunization, the mice were subcutaneously injected with 5×10^5 or with 5×10^7 EG7OVA cells. In some experiments, mice were first challenged s.c with 5×10^5 cells and when tumors reached 5 mm in diameter they were treated with the indicated peptide. The tumor growth was controlled with a gage. Mice were sacrificed when the tumor reached a volume greater than 4 cm^3. Kaplan-Meier plot of mice survival for each immunogen is depicted.

[4] = tested on: splenocytes pulsed with the SIINFEKL peptide; assay: In vivo killing assay against SIINFEKL-pulsed splenocytes after immunization; set-up: species or system C57BL/6 mice; conditions: 5 nmoles peptide plus 50 μg poly I:C
Method: as §1, with “Seven days after the immunization, the mice were intravenously injected with a mixture of 5×10^6 splenocytes, half of which had been previously labeled with a dose of 0.25 μM C and the other half with 2.5 uM CFSE and the SIINFEKL peptide (10 μg/ml).” left out
C57BL6 wild type mice and knockout mice were immunized for TLR2 with the aim of studying the dependence on TLR2 in the immunostimulating capacity of modulin-derived peptides. Thus, different mice were injected with 5 nmoles of the indicated peptides or with PBS in combination with 50 μg of the TLR3 ligand poly I:C. […] On the following day, the mice were sacrificed and the splenocytes were analyzed by flow cytometry to quantify the number of cells with high CFSE labeling with respect to the cells with low CFSE labeling in the same manner as in Example 3.

EG7OVA tumor cells [5] = assay: Protection against the challenge with EG7OVA tumor cells after immunization; type: in vivo, C57BL/6 mice; conditions: 5 nmoles peptide with poly I:C
Method: as §3, with “Seven days after the immunization, the mice were subcutaneously injected with 5×10^5 or with 5×10^7 EG7OVA cells.” left out

[6] = tested on: target cells pulsed with peptide 1073; assay: In vivo killing assay using target cells pulsed with peptide 1073; conditions: 5 nmoles peptide with poly I:C, seven days after immunization
Method: as §1, with “Seven days after the immunization, the mice were intravenously injected with a mixture of 5×10^6 splenocytes, half of which had been previously labeled with a dose of 0.25 μM C and the other half with 2.5 uM CFSE and the SIINFEKL peptide (10 μg/ml).” left out, “SIINFEKL” left out
(§4) Thus the peptides αMod-1073, γMod-1073 and δMod-1073 as well as the peptide p1073 alone were synthesized. HELD transgenic mice (which express the human HLA_A2 molecule) were immunized with 5 nmoles of the corresponding peptide in the presence of poly I:C. Seven days after immunization, ELISPOT and in vivo killing assays were carried out as described above using target cells pulsed with peptide 1073.

[7] = tested on: IFNγ producing cells specific for peptide p1073 from hepatitis C NS3 protein; assay: ELISPOT of IFNγ producing cells specific for peptide 1073 after immunization; type: in vivo; conditions: 5 nmoles peptide with poly I:C, seven days after immunization
Method: as §2, with “SIINFEKL” left out
as §4

[8] = tested on: TC-1 tumor cells (expressing the E7 protein of the HPV-16 virus); assay: Treatment of mice carrying TC1 subcutaneous tumors; type: in vivo, C57B/6 mice; conditions: TC1 tumors of 8 mm diameter, i.v. peptide plus 50 μg/ml poly I:C, second immunization seven days later
Method: The C57B/6 mice were subcutaneously injected with 5×10^5 TC-1 tumor cells (expressing the E7 protein of the HPV-16 virus). After 25 days, when the tumor reaches a diameter of 8 mm, the mice are intravenously treated with PBS (B), with peptide E7(49-57) plus 50 μg/ml poly I:C(C), or with peptide αMod-E7(49-57) plus 50 μg/ml poly I:C (D). Seven days later, the mice received a second immunization of the same immunogens. The tumor size, presented as the average of two perpendicular diameters, was measured at regular intervals using a gauge. The number of tumor-free mice relative to the total number of animals per group is included for each treatment.

[9] = tested on: dendritic cells derived from bone marrow; assay: Expression of messenger RNA for IL-12 p40 and TNFα in dendritic cells (real-time PCR); type: cell-based, mouse; conditions: 50 μM peptide, 16 hours, versus culture medium alone, p<0.05
Method: (§5) Dendritic cells were grown from bone marrow cells. […] The remaining cells grew in 12 culture plates in complete medium with 10^6 cells/ml supplemented with 20 ng/ml of mGM-CSF and 20 ng/ml of mIL-4 (both from Peprotech; London, GB). Every 2 days the medium was substituted with fresh medium containing cytokines. On day 7, non-adherent dendritic cells were collected, and cultured in the presence or absence of 50 μM of modulin peptides or of 1 μg/ml of LPS (Sigma) and incubated for 48 hours at 37° C. and 5% CO2. After this period, the cells were isolated and incubated with anti IAb, CD54 and CD86 antibodies (Pharmingen). In parallel experiments, the dendritic cells were incubated with the indicated stimuli for 16 hours, after which the expression of the messenger RNA for the p40 molecules of IL-12 and of TNF-α was analyzed.
The total RNA of dendritic cells incubated for 16 hours with the different stimuli indicated above were extracted using the Nucleic Acid Purification Lysis Solution (Applied BioSystems, Foster City, Calif.) and the ABI PRISM 6100 Nucleic Acid PrepStation (Applied BioSystems) semiautomatic system.

[10] = tested on: dendritic cells derived from bone marrow; assay: Upregulation of maturation markers on dendritic cells (flow cytometry); type: cell-based, mouse; conditions: 50 μM peptide, 48 hours
Method: as §5
Expression of DC maturation markers was measured by flow cytometry. DC were harvested and pre-incubated with a rat anti-CD16/32 mAb (2.4G2 clone, BD Pharmingen) for 15 min, to block non-specific binding of primary antibodies. After this initial incubation, cells were stained with the primary antibodies at 4° C. for 15 min, washed and acquired on FACSscan cytometer (BD Biosciences, San Diego, Calif.) and analyzed using Cell Quest software (BD Biosciences).

Substance: SIINFEKL [reference compound]
- reduction of the bright fluorescence of CFSE γMod-SIINFEKL on splenocytes by unlabeled peptide (mouse splenocytes): did not affect this signal
- IFNγ-producing cells in response to SIINFEKL (ELISPOT) ([1]; 60 days after immunization): not capable of inducing
- IFNγ-producing cells in response to SIINFEKL (ELISPOT) ([1]; seven days after immunization): not capable of activating these responses
- proliferation of OT-1 T lymphocytes stimulated by peptide-incubated dendritic cells [2]: proliferate better
- mice rejecting the established tumor (EG7OVA tumor cells [3]): 0%
- cells with lysis capacity against SIINFEKL (in vivo killing) ([4]; 60 days after immunization): not capable of inducing
- specific cytotoxic activity against SIINFEKL (in vivo killing) ([4]; seven days after immunization): not capable of activating these responses
- protection from tumor growth after EG7OVA challenge (EG7OVA tumor cells [5]; 5×10^5 EG7OVA cells s.c. seven days after immunization (FIG. 5A)): developed tumors
- protection from tumor growth after EG7OVA challenge (EG7OVA tumor cells [5]; 7×10^5 EG7OVA cells s.c. seven days after immunization (FIG. 5B)): developed tumors

Substance: polyinosinic-polycytidylic acid [poly I:C]
- mice rejecting the established tumor (EG7OVA tumor cells [3]): 0%

Substance: MAADIISTIGDLVKWIIDTVNKFKKCVNGVCWTV [γMod-1073]
- CTL activity against peptide 1073 (in vivo killing) [6]: high levels of CTL activity
- IFNγ producing cells specific for peptide 1073 (ELISPOT) [7]: high numbers of IFNγ producing cells

Substance: RAHYNIVTF [E7(49-57), reference compound]
- number of tumor-free (cured) mice relative to the total number of mice [8]: 4 of 11

Substance: MSIVSTIIEVVKTIVDIVKKFKKCVNGVCWTV [δMod-1073]
- CTL activity against peptide 1073 (in vivo killing) [6]: high levels of CTL activity
- IFNγ producing cells specific for peptide 1073 (ELISPOT) [7]: high numbers of IFNγ producing cells

Substance: CVNGVCWTV [Peptide 1073, reference compound]
- CTL activity against peptide 1073 (in vivo killing) [6]: not found
- IFNγ producing cells specific for peptide 1073 (ELISPOT) [7]: not found

Substance: MADVIAKIVEIVKGLIDQFTQK (Staphylococcus epidermidis RP62A) [αMod]
- expression of messenger RNA for IL-12 (p40) [9]: capable of increasing the expression
- expression of messenger RNA for TNF-alpha [9]: capable of increasing the expression
- expression of CD54 on dendritic cells [10]: activates the expression
- expression of CD86 on dendritic cells [10]: activates the expression
- expression of the IAb molecule on dendritic cells [10]: activates the expression

Substance: MAADIISTIGDLVKWIIDTVNKFKK [γMod]
- expression of messenger RNA for IL-12 (p40) [9]: capable of increasing the expression
- expression of messenger RNA for TNF-alpha [9]: capable of increasing the expression
- expression of CD54 on dendritic cells [10]: promotes the expression
- expression of the IAb molecule on dendritic cells [10]: promotes the expression

Substance: MADVIAKIVEIVKGLIDQFTQKCVNGVCWTV [αMod-1073]
- CTL activity against peptide 1073 (in vivo killing) [6]: strong T cell immune responses
- IFNγ producing cells specific for peptide 1073 (ELISPOT) [7]: strong T cell immune responses
